Results: US20260250640A1, “NOVEL COMPOSITIONS AND THEIR USE TO INCREASE MOTILITY, VIABILITY AND LIFESPAN OF SPERM CELLS AND FERTILITY” (IMV TECHNOLOGIES, priority 2023, published 2026)

System: bull semen
Method: • a 2.4 mM BaCl2 solution in OptiXcell was prepared, • 1 mL of this solution was resuspended in a 5 mg vial of DMNP-EDTA, • 1.5 mL of DMNP-EDTA were added for a final DMNP-EDTA concentration of 2.6 mM, • The solution was kept away from light, • The solution was contacted with semen in different chelator/semen ratios: • 1:1=>500 μL chelators+500 μL bull semen at 57 Mspz/mL • 1:0.75=>500 μL chelators+375 μL bull semen at 57 Mspz/mL • 1:0.5=>500 μL chelators+250 μL bull semen at 57 Mspz/mL • 1:0.25=>500 μL chelators+125 μL bull semen at 57 Mspz/mL • A BaCl2 solution only: 500 μL BaCl2 at 2.4 mM+500 μL bull semen at 57 Mspz/mL was prepared • The following analyses have been performed on frozen bull semen: • Mobility analysis on IVOS II™ at T=0 and T3H 37° C., • Acrosome integrity analysis on EasyCyte at T=0 and T3H 37° C., • Viability analysis on EasyCyte at T=0 and T3H 37° C. • Mitochondrial activity analysis on EasyCyte at T=0 and T3H 37° C.
The control corresponds to OptiXcell alone.

Row | SMILES | sperm viability (T=3H 37° C.) | impact on viability | sperm viability, difference vs. Control | impact on mobility (T0 and T3H 37° C., conclusion) | sperm motility, difference vs control (OptiXcell alone) (T=3H 37° C., 1/1 chelator/semen) | sperm motility (presence of chelator (BaCl2/DMNP-EDTA solution in OptiXcell), T=0 and T3H 37° C.)
1 | [Ba+2].[Cl-].[Cl-] [BaCl2] | remained unchanged | – | – | – | – | –
2 | COc1cc(C(CN(CC(=O)O)CC(=O)O)N(CC(=O)O)CC(=O)O)c([N+](=O)[O-])cc1OC (stereo not drawn) [chelator, DMNP-EDTA] | – | No major impact | +13 pts | No major impact | +9 pts | not affected
